Source: patent US10934310B2, “Inhibitors of Bruton's tyrosine kinase and method of their use” (JANSSEN PHARMACEUTICA NV, priority 2015, dated 2021)

What follows are compounds tested against unphosphorylated-BTK kinase domain (UP-BTK), GST-tagged human BTK (389-659aa) (Homo sapiens (Human), UniProt Q06187) (assay: BTK Kinase Lanthascreen Binding Assay). Conditions: compound, 50 nM Tracer 236, 2 nM anti-GST antibody, 60 minutes; pIC50 = negative log of the IC50 in molar.
Method: BTK Kinase Lanthascreen Binding Assay:
A BTK kinase lanthascreen binding assay monitors compound binding to unphosphorylated-BTK kinase domain (UP-BTK), by competing with a fluorescent labeled tracer. […] Data were analyzed using Xlfit™ version 5.3 from ID Business Solutions (Guildford), Microsoft Excel add-in. pIC50 refers to the negative log of the IC50 in molar.

Chain of unphosphorylated-BTK kinase domain (UP-BTK), GST-tagged human BTK (389-659aa) (Q06187 389-659): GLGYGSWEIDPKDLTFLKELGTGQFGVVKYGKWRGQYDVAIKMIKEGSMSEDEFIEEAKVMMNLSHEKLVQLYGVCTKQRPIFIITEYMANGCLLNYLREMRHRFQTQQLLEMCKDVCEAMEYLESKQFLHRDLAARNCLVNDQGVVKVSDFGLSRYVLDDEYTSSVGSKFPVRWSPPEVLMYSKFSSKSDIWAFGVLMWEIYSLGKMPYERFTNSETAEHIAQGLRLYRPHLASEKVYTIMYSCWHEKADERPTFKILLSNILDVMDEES

`C=CC(=O)N[C@H]1CC[C@H](NC(=O)c2sc3nccc4c3c2NC(=O)N4c2ccc(Oc3ccccc3)cc2C)CC1` [Example 13, N-((1R,4R)-4-Acrylamidocyclohexyl)-5-(2-methyl-4-phenoxyphenyl)-4-oxo-4,5-dihydro-3H-1-thia-3,5,8-triazaacenaphthylene-2-carboxamide] and `Cc1cc(Oc2ccccc2)ccc1N1C(=O)Nc2c(C(=O)N[C@H]3CC[C@@H](NC#N)CC3)sc3nccc1c23` [Example 23, N-((1S,4S)-4-Cyanamidocyclohexyl)-5-(2-methyl-4-phenoxyphenyl)-4-oxo-4,5-dihydro-3H-1-thia-3,5,8-triazaacenaphthylene-2-carboxamide] are within 0.2 log units of each other in “BTK_I_binding pIC50” value: 6.94 for the first, 6.77 for the second.

`Cc1cc(Oc2ccccc2)ccc1N1C(=O)Nc2c(C(=O)N[C@H]3CC[C@H](O)CC3)sc3nccc1c23` [Example 15, N-((1R,4R)-4-Hydroxycyclohexyl)-5-(2-methyl-4-phenoxyphenyl)-4-oxo-4,5-dihydro-3H-1-thia-3,5,8-triazaacenaphthylene-2-carboxamide] and `Cc1cc(Oc2ccccc2)ccc1N1C(=O)Nc2c(C(=O)N[C@H]3CC[C@@H](O)CC3)sc3nccc1c23` [Example 16, N-((1S,4S)-4-Hydroxycyclohexyl)-5-(2-methyl-4-phenoxyphenyl)-4-oxo-4,5-dihydro-3H-1-thia-3,5,8-triazaacenaphthylene-2-carboxamide] are within 0.2 log units of each other in “BTK_I_binding pIC50” value: 7.21 for the first, 7.14 for the second.

First: CO[C@H]1CC[C@H](NC(=O)c2sc3nccc4c3c2NC(=O)N4c2ccc(Oc3ccccc3)cc2C)CC1 [Example 18, N-((1R,4R)-4-Methoxycyclohexyl)-5-(2-methyl-4-phenoxyphenyl)-4-oxo-4,5-dihydro-3H-1-thia-3,5,8-triazaacenaphthylene-2-carboxamide]
Second: Cc1cc(Oc2ccccc2)ccc1N1C(=O)Nc2c(C(=O)N[C@H]3CC[C@@H](N)CC3)sc3nccc1c23 [Example 25, N-((1S,4S)-4-Aminocyclohexyl)-5-(2-methyl-4-phenoxyphenyl)-4-oxo-4,5-dihydro-3H-1-thia-3,5,8-triazaacenaphthylene-2-carboxamide]
The “BTK_I_binding pIC50” value of the first is higher: 6.99 for the first, 6.66 for the second.

`Cc1cc(Oc2ccccc2)ccc1N1C(=O)Nc2c(C(=O)N[C@H]3CC[C@@H](NC(=O)/C(C#N)=C/C4CC4)CC3)sc3nccc1c23` [Example 19, N-((1S,4S)-4-((E)-2-Cyano-3-cyclopropylacrylamido)cyclohexyl)-5-(2-methyl-4-phenoxyphenyl)-4-oxo-4,5-dihydro-3H-1-thia-3,5,8-triazaacenaphthylene-2-carboxamide] and `Cc1cc(Oc2ccccc2)ccc1N1C(=O)Nc2c(C(=O)NC3CCCC3)sc3nccc1c23` [Example 28, N-Cyclopentyl-5-(2-methyl-4-phenoxyphenyl)-4-oxo-4,5-dihydro-3H-1-thia-3,5,8-triazaacenaphthylene-2-carboxamide] are within 0.2 log units of each other in “BTK_I_binding pIC50” value: 6.63 for the first, 6.67 for the second.

First: Cc1cc(Oc2ccccc2)ccc1N1C(=O)Nc2c(C(=O)N[C@H]3CCC[C@@H]3O)sc3nccc1c23 [Example 20, N-((1S,2S)-2-Hydroxycyclopentyl)-5-(2-methyl-4-phenoxyphenyl)-4-oxo-4,5-dihydro-3H-1-thia-3,5,8-triazaacenaphthylene-2-carboxamide]
Second: Cc1cc(Oc2ccccc2)ccc1N1C(=O)Nc2c(C(=O)N[C@H]3CCC[C@H]3O)sc3nccc1c23 [Example 39, N-((1S,2R)-2-Hydroxycyclopentyl)-5-(2-methyl-4-phenoxyphenyl)-4-oxo-4,5-dihydro-3H-1-thia-3,5,8-triazaacenaphthylene-2-carboxamide]
The “BTK_I_binding pIC50” value of the first is higher: 7.02 for the first, 6.51 for the second.

`CN[C@@H]1CCC[C@H]1NC(=O)c1sc2nccc3c2c1NC(=O)N3c1ccc(Oc2ccccc2)cc1C` [Example 21, 5-(2-Methyl-4-phenoxyphenyl)-N-((1R,2R)-2-(methylamino)cyclopentyl)-4-oxo-4,5-dihydro-3H-1-thia-3,5,8-triazaacenaphthylene-2-carboxamide] and `CNC1CCCCC1NC(=O)c1sc2nccc3c2c1NC(=O)N3c1ccc(Oc2ccccc2)cc1C` (stereo not drawn) [Example 31, 5-(2-Methyl-4-phenoxyphenyl)-N-(2-(methylamino)cyclohexyl)-4-oxo-4,5-dihydro-3H-1-thia-3,5,8-triazaacenaphthylene-2-carboxamide] are within 0.2 log units of each other in “BTK_I_binding pIC50” value: 6.85 for the first, 6.66 for the second.

Compared with `Cc1cc(Oc2ccccc2)ccc1N1C(=O)Nc2c(C(=O)N[C@@H]3CCC[C@H]3N)sc3nccc1c23` [Example 22, N-((1R,2R)-2-Aminocyclopentyl)-5-(2-methyl-4-phenoxyphenyl)-4-oxo-4,5-dihydro-3H-1-thia-3,5,8-triazaacenaphthylene-2-carboxamide], `Cc1cc(Oc2ccccc2)ccc1N1C(=O)Nc2c(C(=O)N[C@H]3CCC[C@@H]3N)sc3nccc1c23` [Example 41, N-((1S,2S)-2-Aminocyclopentyl)-5-(2-methyl-4-phenoxyphenyl)-4-oxo-4,5-dihydro-3H-1-thia-3,5,8-triazaacenaphthylene-2-carboxamide] is lower in “BTK_I_binding pIC50” value: 7.13 for the first, 6.37 for the second.

Compared with `Cc1cc(Oc2ccccc2)ccc1N1C(=O)Nc2c(C(=O)N[C@@H]3CCC[C@H](N(C)C)C3)sc3nccc1c23` [Example 24, N-((1R,3S)-3-(Dimethylamino)cyclohexyl)-5-(2-methyl-4-phenoxyphenyl)-4-oxo-4,5-dihydro-3H-1-thia-3,5,8-triazaacenaphthylene-2-carboxamide], `Cc1cc(Oc2ccccc2)ccc1N1C(=O)Nc2c(C(=O)N[C@@H]3CCC[C@H]3N(C)C)sc3nccc1c23` [Example 29, N-((1R,2R)-2-(Dimethylamino)cyclopentyl)-5-(2-methyl-4-phenoxyphenyl)-4-oxo-4,5-dihydro-3H-1-thia-3,5,8-triazaacenaphthylene-2-carboxamide] is higher in “BTK_I_binding pIC50” value: 6.59 for the first, 6.81 for the second.

Going from `CCC(=O)N[C@@H]1CCC[C@H]1NC(=O)c1sc2nccc3c2c1NC(=O)N3c1ccc(Oc2ccccc2)cc1C` [Example 26, 5-(2-Methyl-4-phenoxyphenyl)-4-oxo-N-((1R,2R)-2-propionamidocyclopentyl)-4,5-dihydro-3H-1-thia-3,5,8-triazaacenaphthylene-2-carboxamide] to `CCC(=O)N[C@H]1CCC[C@H]1NC(=O)c1sc2nccc3c2c1NC(=O)N3c1ccc(Oc2ccccc2)cc1C` [Example 34, 5-(2-Methyl-4-phenoxyphenyl)-4-oxo-N-((1R,2S)-2-propionamidocyclopentyl)-4,5-dihydro-3H-1-thia-3,5,8-triazaacenaphthylene-2-carboxamide], the “BTK_I_binding pIC50” value rises from 6.69 to 6.91.

First: Cc1cc(Oc2ccccc2)ccc1N1C(=O)Nc2c(C(=O)N[C@@]34C[C@@H]5C[C@@H](C[C@@](O)(C5)C3)C4)sc3nccc1c23 [Example 30, N-((1r,3s,5R,7S)-3-Hydroxyadamantan-1-yl)-5-(2-methyl-4-phenoxyphenyl)-4-oxo-4,5-dihydro-3H-1-thia-3,5,8-triazaacenaphthylene-2-carboxamide]
Second: Cc1cc(Oc2ccccc2)ccc1N1C(=O)Nc2c(C(=O)N[C@@H]3CCCC[C@H]3N)sc3nccc1c23 [Example 38, N-((1R,2R)-2-Aminocyclohexyl)-5-(2-methyl-4-phenoxyphenyl)-4-oxo-4,5-dihydro-3H-1-thia-3,5,8-triazaacenaphthylene-2-carboxamide]
The “BTK_I_binding pIC50” value of the first is lower: 6.36 for the first, 6.68 for the second.

Going from `Cc1cc(Oc2ccccc2)ccc1N1C(=O)Nc2c(C(=O)N[C@H]3CCC[C@@H]3N(C)C)sc3nccc1c23` [Example 32, N-((1S,2S)-2-(Dimethylamino)cyclopentyl)-5-(2-methyl-4-phenoxyphenyl)-4-oxo-4,5-dihydro-3H-1-thia-3,5,8-triazaacenaphthylene-2-carboxamide] to `CC(=O)N[C@H]1CCC[C@H]1NC(=O)c1sc2nccc3c2c1NC(=O)N3c1ccc(Oc2ccccc2)cc1C` [Example 37, N-((1R,2S)-2-Acetamidocyclopentyl)-5-(2-methyl-4-phenoxyphenyl)-4-oxo-4,5-dihydro-3H-1-thia-3,5,8-triazaacenaphthylene-2-carboxamide], the “BTK_I_binding pIC50” value falls from 7.12 to 6.68.

Going from `CC(=O)N[C@H]1CCCC[C@H]1NC(=O)c1sc2nccc3c2c1NC(=O)N3c1ccc(Oc2ccccc2)cc1C` [Example 33, N-((1R,2S)-2-Acetamidocyclohexyl)-5-(2-methyl-4-phenoxyphenyl)-4-oxo-4,5-dihydro-3H-1-thia-3,5,8-triazaacenaphthylene-2-carboxamide] to `CC(=O)N[C@H]1CCC[C@@H]1NC(=O)c1sc2nccc3c2c1NC(=O)N3c1ccc(Oc2ccccc2)cc1C` [Example 40, N-((1S,2S)-2-Acetamidocyclopentyl)-5-(2-methyl-4-phenoxyphenyl)-4-oxo-4,5-dihydro-3H-1-thia-3,5,8-triazaacenaphthylene-2-carboxamide], the “BTK_I_binding pIC50” value falls from 6.98 to 6.40.

Compared with `CCC(=O)N[C@H]1CCCC[C@H]1NC(=O)c1sc2nccc3c2c1NC(=O)N3c1ccc(Oc2ccccc2)cc1C` [Example 35, 5-(2-Methyl-4-phenoxyphenyl)-4-oxo-N-((1R,2S)-2-propionamidocyclohexyl)-4,5-dihydro-3H-1-thia-3,5,8-triazaacenaphthylene-2-carboxamide], `CCC(=O)N[C@@H]1CCCC[C@@H]1NC(=O)c1sc2nccc3c2c1NC(=O)N3c1ccc(Oc2ccccc2)cc1C` [Example 42, 5-(2-Methyl-4-phenoxyphenyl)-4-oxo-N-((1S,2R)-2-propionamidocyclohexyl)-4,5-dihydro-3H-1-thia-3,5,8-triazaacenaphthylene-2-carboxamide] is lower in “BTK_I_binding pIC50” value: 6.87 for the first, 6.24 for the second.

Same assay, conditions: read-out: BTK_I_binding pIC50 (converted)

`Cc1cc(Oc2ccccc2)ccc1N1C(=O)Nc2c(C(=O)N[C@@H]3CCC[C@@H]3N(C)C)sc3nccc1c23` [Example 17, N-((1R,2S)-2-(Dimethylamino)cyclopentyl)-5-(2-methyl-4-phenoxyphenyl)-4-oxo-4,5-dihydro-3H-1-thia-3,5,8-triazaacenaphthylene-2-carboxamide] gave an IC50 of 120 nM.
